# Numbered stars: 1 amine (or outer) side, 2 acyl side, 3 side chain; on linkers, the order of the positions; unused ones are H or OH. Bridge positions count the residues as written; N and C are the ends. Square brackets hold non-standard residues; d marks the D form. Peptide text beside a SMILES is read from it. * marks the point of attachment. hPhe(3-Cl-4-CF3) = N[C@@H](CCc1ccc(C(F)(F)F)c(Cl)c1)C(=O)O; hPhe(3-F,4-CF3) = N[C@@H](CCc1ccc(C(F)(F)F)c(F)c1)C(=O)O; X33 = O=C([C@H](CCc1c(F)c(F)c(F)c(F)c1F)N[*:1])[*:2]; NMePhe(4-CF3) = CN[C@@H](Cc1ccc(C(F)(F)F)cc1)C(=O)O; hPhe(4-CF3) = N[C@@H](CCc1ccc(C(F)(F)F)cc1)C(=O)O; NMePhe(4-Cl) = CN[C@@H](Cc1ccc(Cl)cc1)C(=O)O; NMePhe(4-Me) = CN[C@@H](Cc1ccc(C)cc1)C(=O)O; NMedβ3hAla = C[C@H](CC(=O)[*:2])N(C)[*:1]; NMeAla(cPent) = CN[C@@H](CC1CCCC1)C(=O)O; NMeGly(cPent) = CN[C@H](C(=O)O)C1CCCC1; NMeCha = CN[C@@H](CC1CCCCC1)C(=O)O; Hyp = O=C(O)[C@@H]1C[C@@H](O)CN1; NEtLeu = CCN[C@@H](CC(C)C)C(=O)O; NMeF = CN[C@@H](Cc1ccccc1)C(=O)O; NMeI = CC[C@H](C)[C@H](NC)C(=O)O; NMeD = CN[C@@H](CC(=O)O)C(=O)O; NMeL = CN[C@@H](CC(C)C)C(=O)O; NEtAla = CCN[C@@H](C)C(=O)O; NMeV = CN[C@H](C(=O)O)C(C)C; d(β3hA) = C[C@@H](N)CC(=O)O; Azetidin(1-yl) = C1CN(*)C1; Morpholide = C1CN(*)CCO1; NMeA = CN[C@@H](C)C(=O)O; Piperidide = C1CCN(*)CC1; Pyrrolidide = C1CCN(*)C1; Ac5c = NC1(C(=O)O)CCCC1; Aze = O=C(O)[C@@H]1CCN1; Ac4c = NC1(C(=O)O)CCC1; Sar = CNCC(=O)O
# Molecular target: protein-protein interaction between Kras and SOS1 (biotin-tagged human Kras loaded with GDP, His-tagged human SOS1) (Homo sapiens (Human), UniProt P01116, G12D)
# Assay: Protein-protein interaction inhibition between Kras and SOS1 (KrasG12D-SOS PPI) using AlphaScreen;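 further: kras produced in E. coli, Ni-coupled donor beads and streptavidin acceptor beads, excitation 680 nm with emission detected at 520–620 nm via singlet oxygen transfer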
# Format: biochemical
# Details: AlphaScreen; biotin-tagged human Kras loaded with GDP, His-tagged human SOS1; read-out: KRAS G12D-SOS PPI IC50
row,SMILES,IC50 [nM]
1,CC[C@H](C)[C@@H]1NC(=O)[C@H](CC(C)C)N(C)C(=O)C[C@@H](C)NC(=O)[C@H](C(C)C)N(C)C(=O)C2(CCCC2)NC(=O)[C@@H]2CCCN2C(=O)[C@H](CCc2ccc(C(F)(F)F)c(Cl)c2)NC(=O)CN(C)C(=O)[C@H](Cc2ccc(C)cc2)N(C)C(=O)[C@@H]2CCN2C(=O)[C@H](C)N(C)C1=O [Compound 1801] (cyclo([Ac5c][NMeV][d(β3hA)][NMeL]I[NMeA][Aze][NMePhe(4-Me)][Sar][hPhe(3-Cl-4-CF3)]P)),2.9
2,CC[C@H](C)[C@@H]1NC(=O)[C@H](CC(C)C)N(C)C(=O)C[C@@H](C)NC(=O)[C@H](C2CCCC2)N(C)C(=O)C2(CCCC2)NC(=O)[C@@H]2CCCN2C(=O)[C@H](CCc2ccc(C(F)(F)F)c(Cl)c2)NC(=O)CN(C)C(=O)[C@H](Cc2ccc(C)cc2)N(C)C(=O)[C@@H]2CCN2C(=O)[C@H](C)N(CC)C1=O [Compound 1023] (cyclo([Ac5c][NMeGly(cPent)][d(β3hA)][NMeL]I[NEtAla][Aze][NMePhe(4-Me)][Sar][hPhe(3-Cl-4-CF3)]P)),20
3,CC[C@H](C)[C@@H]1NC(=O)[C@H](CC(C)C)N(CC)C(=O)C[C@@H](C(=O)N2CCC2)N(C)C(=O)[C@H](C2CCCC2)N(C)C(=O)C2(CCCC2)NC(=O)[C@@H]2CCCN2C(=O)[C@H](CCc2ccc(C(F)(F)F)c(Cl)c2)NC(=O)CN(C)C(=O)[C@H](CC2CCCCC2)N(C)C(=O)[C@@H]2CCN2C(=O)[C@H](C)N(C)C1=O [Compound 1198] ([NEtLeu]I[NMeA][Aze][NMeCha][Sar][hPhe(3-Cl-4-CF3)]P[Ac5c][NMeGly(cPent)][NMeD]-{Azetidin(1-yl)}; lactam N-11),1.2
4,"CC[C@H](C)[C@@H]1NC(=O)[C@H](CC(C)C)N(C)C(=O)C[C@@H](C(=O)N2CCCC2)N(C)C(=O)[C@H](C2CCCC2)N(C)C(=O)C2(CCCC2)NC(=O)[C@@H]2CCCN2C(=O)[C@H](CCc2ccc(C(F)(F)F)c(F)c2)NC(=O)CN(C)C(=O)[C@H](C2CCCC2)N(C)C(=O)[C@@H]2CCN2C(=O)[C@H](C)N(C)C1=O [Compound 918] ([NMeL]I[NMeA][Aze][NMeGly(cPent)][Sar][hPhe(3-F,4-CF3)]P[Ac5c][NMeGly(cPent)][NMeD]-Pyrrolidide; lactam N-11)",0.89
5,CCO[C@@H]1C[C@H]2C(=O)NC3(CCC3)C(=O)N(C)[C@@H]([C@@H](C)CC)C(=O)N(C)[C@H](C)CC(=O)N(C)[C@@H](CC(C)C)C(=O)N[C@@H]([C@@H](C)CC)C(=O)N(C)[C@@H](C)C(=O)N3CC[C@H]3C(=O)N(C)[C@@H](Cc3ccc(C(F)(F)F)cc3)C(=O)N(C)CC(=O)N[C@@H](CCc3ccc(C(F)(F)F)c(Cl)c3)C(=O)N2C1 [Compound 99] (cyclo([Ac4c][NMeI][NMedβ3hAla][NMeL]I[NMeA][Aze][NMePhe(4-CF3)][Sar][hPhe(3-Cl-4-CF3)][Hyp](Et))),2.9
6,CC[C@H](C)[C@@H]1NC(=O)[C@H](C(C)C)N(C)C(=O)C[C@@H](C(=O)N2CCCCC2)NC(=O)[C@H](CC(C)C)N(C)C(=O)C2(CCCC2)NC(=O)[C@H](CC(C)C)N(C)C(=O)[C@H](CCc2ccc(C(F)(F)F)cc2)NC(=O)CN(C)C(=O)[C@H](Cc2ccc(Cl)cc2)N(C)C(=O)CN(C)C(=O)CN(C)C1=O [Compound 610] ([NMeV]I[Sar][Sar][NMePhe(4-Cl)][Sar][hPhe(4-CF3)][NMeL][Ac5c][NMeL]D-Piperidide; lactam N-11),150
7,CC[C@H](C)[C@@H]1NC(=O)[C@H](CC(C)C)N(C)C(=O)C[C@@H](C(=O)N2CCCCC2)N(C)C(=O)[C@H](C(C)C)N(C)C(=O)C2(CCCC2)NC(=O)[C@@H]2CCCN2C(=O)[C@H](CCc2ccc(C(F)(F)F)c(Cl)c2)NC(=O)CN(C)C(=O)[C@H](C(C)C)N(C)C(=O)[C@@H]2CCN2C(=O)[C@H](C)N(C)C1=O [Compound 1737] ([NMeL]I[NMeA][Aze][NMeV][Sar][hPhe(3-Cl-4-CF3)]P[Ac5c][NMeV][NMeD]-Piperidide; lactam N-11),8.3
8,CC[C@H](C)[C@@H]1NC(=O)[C@H](C)N(C)C(=O)C[C@@H](C)NC(=O)[C@H](CC(C)C)N(C)C(=O)[C@H](Cc2ccccc2)N(C)C(=O)[C@H](CC(C)C)NC(=O)[C@H](CCc2c(F)c(F)c(F)c(F)c2F)NC(=O)CN(C)C(=O)[C@H](Cc2ccc(Cl)cc2)N(C)C(=O)CN(C)C(=O)CN(C)C1=O [Compound 2091] (cyclo(I[Sar][Sar][NMePhe(4-Cl)][Sar][X33]L[NMeF][NMeL][d(β3hA)][NMeA])),270
9,CC[C@H](C)[C@@H]1NC(=O)[C@H](CC2CCCC2)N(C)C(=O)C[C@@H](C(=O)N2CCOCC2)N(C)C(=O)[C@H](C2CCCC2)N(C)C(=O)C2(CCCC2)NC(=O)[C@@H]2CCCN2C(=O)[C@H](CCc2ccc(C(F)(F)F)c(Cl)c2)NC(=O)CN(C)C(=O)[C@H](C2CCCC2)N(C)C(=O)[C@@H]2CCN2C(=O)[C@H](C)NC1=O [Compound 1145] ([NMeAla(cPent)]IA[Aze][NMeGly(cPent)][Sar][hPhe(3-Cl-4-CF3)]P[Ac5c][NMeGly(cPent)][NMeD]-Morpholide; lactam N-11),1.1

# From US20240148821A1, “PHARMACEUTICAL USE OF CYCLIC PEPTIDE COMPOUND” (CHUGAI SEIYAKU KABUSHIKI KAISHA, priority 2021, published 2024)
